Patent US11542249B2, “BTK inhibitor compounds” (Eli Lilly and Company, priority 2017, dated 2023)

Legend:
[1] = tested on: type II collagen-induced arthritis (CIA) rat model; assay: Rat In Vivo Collagen-Induced Arthritis Assay; design: species or system Female Lewis rats; conditions: for % inhibition paw thickness AUC vs Vehicle control / % paw thickness AUC (mm) ± SE: CIA rats, 9 days; for arthritis severity in CIA rats: compared to vehicle treated CIA rats
Method: A type II collagen-induced arthritis (CIA) rat model may be used to evaluate the therapeutic effects of compounds. Female Lewis rats (Charles River Charles River Laboratories, Inc.) with a mean body weight of 155-175 g are used for the study. Animals are fed with standard rodent chow and provided water ad libitum. Immunization emulsion is prepared with 2 mg/ml bovine collagen-II mixed with an equal volume of incomplete Freund's adjuvant (IFA). Rats are immunized intradermally with 0.4 ml collagen emulsion in two sites each on the lower lumbar region, above the base of the tail on day 1, and again on day 8. Animals are randomized based on the paw thickness and body weight on day 11 into study groups, with 8 rats in each group. Compounds are prepared in 1% HEC/0.25% P80/0.05% anti-foam in purified water and dosed daily via oral gavage for 9 days. Paw thickness is quantitated daily using a caliper measurement in the right ankle site.
The inhibition by the compounds of the invention is evaluated using Dunnett's post test for multiple comparisons for the CIA rat groups treated with the indicated Example compound, at the indicated dose, as compared to CIA rat groups treated with vehicle, and differences of P<0.05 are considered to be significant. […] Mean sum paw thickness is decreased compared to vehicle treated CIA rats. Mean percent paw thickness inhibition during the treatment period illustrates dose-related improvement.
Table 4 indicates the in vivo activity for exemplified BTK inhibitors in the collagen-induced arthritis model (SE=standard error).

human EGFR = human EGFR (Homo sapiens (Human), UniProt P00533); assay: EGFR LANTHASCREEN Eu Kinase Binding Assay; conditions: IC50 value ± standard deviation; truncated GST-labeled EGFR, kinase tracer 199; read-out: hEGFR Rel IC50
Sequence of human EGFR (P00533 668-1210): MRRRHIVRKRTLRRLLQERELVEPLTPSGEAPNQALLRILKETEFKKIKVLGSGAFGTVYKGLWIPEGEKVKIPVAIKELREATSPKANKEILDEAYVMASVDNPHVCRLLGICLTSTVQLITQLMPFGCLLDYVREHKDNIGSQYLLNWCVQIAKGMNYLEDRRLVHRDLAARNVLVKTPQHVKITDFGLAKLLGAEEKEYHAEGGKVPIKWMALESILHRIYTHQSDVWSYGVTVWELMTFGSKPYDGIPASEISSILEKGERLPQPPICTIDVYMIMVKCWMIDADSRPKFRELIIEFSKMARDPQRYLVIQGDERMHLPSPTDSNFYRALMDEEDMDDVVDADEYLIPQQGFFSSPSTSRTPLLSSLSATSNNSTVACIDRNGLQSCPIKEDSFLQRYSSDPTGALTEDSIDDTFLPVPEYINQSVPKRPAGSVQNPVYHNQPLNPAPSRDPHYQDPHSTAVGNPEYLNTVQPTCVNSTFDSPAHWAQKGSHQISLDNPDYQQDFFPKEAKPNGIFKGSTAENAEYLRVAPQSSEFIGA

[2] = tested on: activated B cells in human whole blood (CD69); assay: Human Whole Blood CD69 in vitro assay (B cell activation, flow cytometry); type: cell-based; conditions: IC50 value ± standard deviation, anti-human-IgD-Dextran stimulation, read-out: HWB CD69 Rel IC50
human BTK = human BTK (Homo sapiens (Human), UniProt Q06187); assay: BTK LANTHASCREEN Eu Kinase Binding Assay; conditions: IC50 value ± standard deviation; full-length His-labeled BTK, kinase tracer 236; read-out: hBTK Rel IC50
Sequence of human BTK (Q06187 whole entry): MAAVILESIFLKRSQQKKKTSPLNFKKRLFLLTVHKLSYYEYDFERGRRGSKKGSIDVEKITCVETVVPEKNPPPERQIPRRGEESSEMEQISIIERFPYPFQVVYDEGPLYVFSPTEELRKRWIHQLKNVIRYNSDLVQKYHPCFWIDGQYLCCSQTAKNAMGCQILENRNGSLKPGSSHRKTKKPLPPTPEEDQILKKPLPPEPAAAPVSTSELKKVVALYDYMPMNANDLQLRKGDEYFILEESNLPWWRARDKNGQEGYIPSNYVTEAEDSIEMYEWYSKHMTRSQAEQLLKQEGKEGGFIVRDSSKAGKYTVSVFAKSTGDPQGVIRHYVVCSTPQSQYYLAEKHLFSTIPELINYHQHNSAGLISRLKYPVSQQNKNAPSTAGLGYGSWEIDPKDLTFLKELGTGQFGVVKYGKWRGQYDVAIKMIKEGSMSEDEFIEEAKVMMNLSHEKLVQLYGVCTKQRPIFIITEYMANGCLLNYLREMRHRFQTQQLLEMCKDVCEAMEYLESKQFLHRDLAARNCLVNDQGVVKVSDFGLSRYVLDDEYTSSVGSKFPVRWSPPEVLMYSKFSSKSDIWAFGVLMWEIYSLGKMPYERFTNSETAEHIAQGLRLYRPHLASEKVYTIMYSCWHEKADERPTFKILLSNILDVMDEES

Rat Oral Bioavailability = type: in vivo, Sprague-Dawley rats; conditions: Sprague-Dawley, plasma, PO 3 mg/kg vs IV 1 mg/kg, read-out: Rat Oral Bioavailability (% F)
Method: The test compound is administered to Sprague-Dawley rats intravenously (IV) at 1 mg/kg (using vehicles of either: 20% CAPTISOL® in 25 mM sodium phosphate buffer, pH2 quantum satis; or 25% DMA, 15% EtOH, 10% propylene glycol, 25% 2-pyrrolidone, and 25% purified water) and orally (PO) at 3 mg/kg (using a vehicle of 1% hydroxyethyl cellulose, 0.25% polysorbate 80, 0.05% Antifoam 1510-US, and purified water quantum satis). Serial blood samples are collected at 0.08, 0.25, 0.5, 1, 2, 4, 8, and 12 h post dose for IV bolus and at 0.25, 0.5, 1, 2, 4, 8, and 12 h post dose after oral administration. After treatment with an EDTA […], plasma is obtained by centrifugation and stored at −70° C. until analysis by LC-MS/MS. Test article concentration is determined in plasma and uploaded into the Watson LIMS™ system where noncompartmental analysis is used to calculate Area Under the Curve (AUC) for both IV and PO arms. Bioavailability (% F) is calculated via the following equation, %F=(AUCPO×DoseIV)/(AUCIV×DosePO)×100. Table 3 indicates the rat oral bioavailability of select BTK inhibitors.

normal rats = assay: In vivo administration to normal rats for four days (tolerability/toxicity)
Description: Compounds of the invention, for instance Example 1, show an advantageous combination of pharmacological properties, such as potency, high oral in vivo availabilty, in vivo efficacy, and a favorable toxicity profile in preclinical testing.

| IC50 (human EGFR) | IC50 [2] | IC50 (human BTK) | bioavailability (Rat Oral Bioavailability) | Structure (SMILES) | % inhibition paw thickness AUC vs Vehicle control ([1]; 0.3 mg/kg/d oral) | % paw thickness AUC (mm) ± SE ([1]; 0.3 mg/kg/d oral) | % inhibition paw thickness AUC vs Vehicle control ([1]; 1 mg/kg/d oral) | % paw thickness AUC (mm) ± SE ([1]; 1 mg/kg/d oral) | % inhibition paw thickness AUC vs Vehicle control ([1]; 3 mg/kg/d oral) | % paw thickness AUC (mm) ± SE ([1]; 3 mg/kg/d oral) | arthritis severity in CIA rats [1] | % inhibition paw thickness AUC vs Vehicle control ([1]; 0.5 mg/kg/d oral) | % paw thickness AUC (mm) ± SE ([1]; 0.5 mg/kg/d oral) | tolerability when administered in vivo (normal rats) | toxicity in vivo (normal rats) |
| --- | --- | --- | --- | --- | --- | --- | --- | --- | --- | --- | --- | --- | --- | --- | --- |
| 22200 ± 19500 nM | 261 ± 145 nM | 9.44 ± 2.26 nM | 44.6% | C=CC(=O)N1CC[C@H](Nc2cncc(-c3cnc(Nc4cccc(OC(F)(F)F)c4)nc3)n2)C1 [Example 33, 1-[(3S)-3-[[6-[2-[3-(trifluoromethoxy)anilino]pyrimidin-5-yl]pyrazin-2-yl]amino]pyrrolidin-1-yl]prop-2-en-1-one] | 24% | 73.61 ± 2.09 mm | 52% | 68.32 ± 2.30 mm | 59% | 67.00 ± 1.52 mm | dose-related reduction | – | – | – | – |
| 10400 ± 11500 nM | 664 ± 314 nM | 33.7 ± 10.8 nM | 38.4% | C=CC(=O)N1CC(Nc2cncc(-c3cnc(Oc4cccc(OC(F)(F)F)c4)nc3)n2)C1 [Example 27, 1-[3-[[6-[2-[3-(trifluoromethoxy)phenoxy]pyrimidin-5-yl]pyrazin-2-yl]amino]azetidin-1-yl]prop-2-en-1-one] | – | – | 24% | 73.30 ± 0.95 mm | 45% | 69.58 ± 1.26 mm | dose-related reduction | – | – | – | – |

| Structure (SMILES) | IC50 (human EGFR) | IC50 [2] | IC50 (human BTK) | bioavailability (Rat Oral Bioavailability) | % inhibition paw thickness AUC vs Vehicle control ([1]; 0.3 mg/kg/d oral) | % paw thickness AUC (mm) ± SE ([1]; 0.3 mg/kg/d oral) | % inhibition paw thickness AUC vs Vehicle control ([1]; 1 mg/kg/d oral) | % paw thickness AUC (mm) ± SE ([1]; 1 mg/kg/d oral) | % inhibition paw thickness AUC vs Vehicle control ([1]; 3 mg/kg/d oral) | % paw thickness AUC (mm) ± SE ([1]; 3 mg/kg/d oral) | arthritis severity in CIA rats [1] | % inhibition paw thickness AUC vs Vehicle control ([1]; 0.5 mg/kg/d oral) | % paw thickness AUC (mm) ± SE ([1]; 0.5 mg/kg/d oral) | tolerability when administered in vivo (normal rats) | toxicity in vivo (normal rats) |
| --- | --- | --- | --- | --- | --- | --- | --- | --- | --- | --- | --- | --- | --- | --- | --- |
| C=CC(=O)N1CCC(Nc2cncc(-c3cnc(Oc4cccc(Cl)c4)nc3)c2)CC1 [Example 1, 1-[4-[[5-[2-(3-chlorophenoxy)pyrimidin-5-yl]-3-pyridyl]amino]-1-piperidyl]prop-2-en-1-one] | 470 ± 93.6 nM | 393 ± 128 nM | 25.3 ± 5.42 nM | 74% | – | – | 47% | 69.6 ± 2.0 mm | 81% | 63.4 ± 1.3 mm | dose-related reduction | 23% | 73.9 ± 2.5 mm | generally well tolerated | advantageous lack of toxicity |
